Counter-ions that a name gives are not always drawn.
How the values were obtained:
GABAA receptors = experiment: Electrophysiology assay, two-electrode voltage clamp in Xenopus oocytes expressing GABAA receptors; assay type: cell-based; details: GABA EC10, screening concentration of 10 μM, subunit combination not stated
Method: mRNA was prepared from lyophilized plasmid pellets containing cDNA inserts encoding the specific GABAA receptor subunit. cDNAs encoding the α2, α3, and γ3 subunits were subcloned into pBluescript, SK^−. cDNAs encoding the α1 and α5 subunits were subcloned into prC while cDNA encoding the β2 subunit was subcloned into pcDNA1. The cDNA construct encoding the γ2s subunit is in the pGH19 expression construct. Overnight cultures of transformed DH5a bacterial cells were performed to grow sufficient quantities for maxiprep isolation of the plasmid cDNA. The resulting plasmid cDNA was linearized by digestion with an appropriate restriction enzyme that cleaves distal to the cDNA insert (XbaI for α1,2, β2, and γ3 or NotI for α3,5 and γ2, respectively). Following digestion, plasmid cDNA was treated with proteinase K and extracted with phenol/chloroform/isoamyl alcohol, followed by ethanol precipitation. cDNA quality was assessed by agarose-gel electrophoresis (1.5% agarose gel). Samples were stored at −20° C. until use. In vitro transcription was performed with T7 RNA polymerase. mRNA was then stored at −80° C. until use. Plasmids were linearized with appropriate restriction enzymes before in vitro transcription using the Message Machine kit (Ambion, Austin, Tex.).
GABAA Receptor Expression in Xenopus oocytes.
GABAA receptor expression in Xenopus oocytes: Following 45 min of 0.15% Tricaine anesthesia, an ovarian section containing the follicular oocytes was removed from the frog through a lateral abdominal incision. Oocytes were immediately placed in a calcium-free solution (NaCl 96 mM, MgCl2 1 mM, KCl 2 mM, Hepes 50 mM, pyruvate 2.5 mM, gentamycin 100 μg/mL, penicillin-streptomycin 50 U/mL, pH 7.4). Following 1.5-2 hour incubation in 0.2% collagenase (type II, Sigma Chemical Co., St. Louis, Mo.) at room temperature, individual Dumont stage V and VI oocytes were transferred to an incubator and maintained overnight in Barth's solution (NaCl 84 mM, NaHCO3 2.4 mM, MgSO4 0.82 mM, KCl 1 mM, Ca(NO3)2 0.33 mM, CaCl2 0.41 mM, Tris/HCl 7.5 mM, pyruvate 2.5 mM, gentamycin 50 μg/mL, penicillin-streptomycin, 100 units/mL, pH 7.4) at 18-20° C. and used for experiments 1-5 days post-injection. Oocytes were injected solution using an electronic microinjector (Drummond, Broomall, Pa.) with 50 nL of RNA containing 0.3-0.5 ng of each subunit RNA in a 1:1:1 ratio. The injected oocytes were used for experiments after 1-5 days of incubation in Barth's solution at 18-20° C.
Measurements of ion currents from oocytes expressing GABAA receptors were performed using a Warner two-electrode voltage-clamp amplifier (Warner Instruments, Inc., Foster City, Calif.) (Park-Chung, M., et al. (1999) Brain Res. 830: 72-87 incorporated herein in its entirety). Microelectrodes were fabricated from borosilicate glass capillaries with a programmed pipette puller (Sutter Instrument Co., Calif.). Microelectrode resistance was 1-3 MΩ when filled with 3 M KCl. The oocyte recording chamber was continuously perfused with Ringer solution. Oocytes were clamped at a holding potential of −70 mV during data acquisition. The membrane current was filtered at 10 Hz and sampled at 100 Hz. Compounds were applied by a gravity-driven external perfusion system. The working volume of the recording chamber was 30 μL and the rate of the perfusion was approximately 50 μL/sec. Compound application was 10-20 sec followed by a 90 sec wash. Data acquisition and external perfusion was computer controlled by custom-developed software. All experiments were performed at room temperature (22-24° C.). Dose-response data from each oocyte were fitted to the Hill equation by non-linear regression using the equation: IGABA=Emax/(1+(EC50/c)^n^H)
Emax is the maximum response, EC50 is the concentration producing 50% of the maximal response, nH is the Hill coefficient and c is the concentration of agonist. […]

[1] = test system: benzodiazepine site of GABAA; experiment: Binding assay, benzodiazepine site of GABAA (binding assay 1: rat brain, (3H)-flunitrazepam; binding assay 2: bovine hippocampal membranes, [3H]-RY80); details: radioligand binding; for % Inhibition at 10 μM: 10 μM test compound; for % Inhibition at 0.1 μM: 0.1 μM test compound
Method: The ability of a compound disclosed herein to act as ligand to the benzodiazepine site of GABAA can be determined using pharmacological models which are well known in the art using the following assay.
Binding assay 1: Whole brain (except cerebellum) of male Wistar derived rats weighing 175±25 g were used to prepare GABAA central benzodiazepine receptor in Na—K phosphate buffer pH 7.4. A 5 mg aliquot was incubated with 1 nM (^3H)-flunitrazepam for 60 minutes at 25° C. Experiments were performed in the presence or absence of 30 μM of GABA. Non-specific binding was estimated in the presence of 10 μM of diazepam. Membranes were filtered and washed, the filters were then counted to determine (^3H)-flunitrazepam specifically bound. Test compounds were tested in duplicate according to the required concentrations (Damm, H. W., et al. (1978) Res. Comm. Chem. Pathol. Pharmacol. 22: 597-560 incorporated herein in its entirety; Speth, R. C., et al. (1979) Life Sci. 24: 351-357 incorporated herein in its entirety).
Receptor Source: Bovine hippocampal membranes
Radioligand: [3H]-RY80 (40-80 Ci/mmol)
Final ligand concentration—[0.8 nM]
Non-specific Determinant: L-655,708—[0.5 μM]
Binding assay 2 followed procedures based on Li and Szabo (Li M., Szabo A., Rosenberg H. Evaluation of native GABAA receptors containing an α5 subunit. Eur. J. Pharmacol. 413: 63-72 (2001)). Incubation Conditions: Reactions are carried out in 50 mM Tris-Citrate (pH 7.8) containing 200 mM NaCl at 0-4° C. for 60 minutes. The reaction is terminated by rapid vacuum filtration onto glass fiber filters. Radioactivity trapped onto the filters is determined and compared to control values in order to ascertain any interactions of test compound with the benzodiazepine (central) binding site.

Row | % Inhibition at 10 μM [1] | % Inhibition at 0.1 μM [1] | Structure (SMILES) | EP Modulation (GABAA receptors)
1 | A (A indicates % inhibition >80%) | A (A indicates % inhibition >80%) | CNC(=O)n1cc2[nH]cc3c(=O)n(-c4ccccc4)nc-3c2c1 [Compound 13a, N-Methyl-3-oxo-2-phenyl-2,3-dihydropyrazolo[3,4-d]pyrrolo[3,4-b]pyridine-7(5H)-carboxamide] | D (D indicates negative modulation >20%)
2 | A (A indicates % inhibition >80%) | A (A indicates % inhibition >80%) | CCNC(=O)n1cc2[nH]cc3c(=O)n(-c4ccccc4)nc-3c2c1 [Compound 13b, N-Ethyl-3-oxo-2-phenyl-2,3-dihydropyrazolo[3,4-d]pyrrolo[3,4-b]pyridine-7(5H)-carboxamide] | D (D indicates negative modulation >20%)
3 | A (A indicates % inhibition >80%) | A (A indicates % inhibition >80%) | CCCNC(=O)n1cc2[nH]cc3c(=O)n(-c4ccccc4)nc-3c2c1 [Compound 13c, 3-Oxo-2-phenyl-N-propyl-2,3-dihydropyrazolo[3,4-d]pyrrolo[3,4-b]pyridine-7(5H)-carboxamide] | D (D indicates negative modulation >20%)

The remaining lines, values behind:

Row | Structure (SMILES) | % Inhibition at 10 μM [1] | % Inhibition at 0.1 μM [1] | EP Modulation (GABAA receptors)
4 | CCCCNC(=O)n1ncc2c3nn(-c4ccccc4)c(=O)c-3c[nH]c21 [Compound 6f, N-butyl-3-oxo-2-phenyl-2,3-dihydrodipyrazolo[3,4-b:3′,4′-d]pyridine-6(5H)-carboxamide.TFA] | A (A indicates % inhibition >80%) | – | D (D indicates negative modulation >20%)
5 | CNC(=O)n1ncc2c3nn(-c4ccccc4)c(=O)c-3c[nH]c21 [Compound 6c, N-methyl-3-oxo-2-phenyl-2,3-dihydrodipyrazolo[3,4-b:3′,4′-d]pyridine-6(5H)-carboxamide] | A (A indicates % inhibition >80%) | B (B indicates % inhibition <80% and >20%) | D (D indicates negative modulation >20%)
6 | CN(C)CCNC(=O)n1ncc2c3nn(-c4ccccc4)c(=O)c-3c[nH]c21 [Compound 7a, N-(2-(dimethylamino)ethyl)-3-oxo-2-phenyl-2,3-dihydrodipyrazolo[3,4-b:3′,4′-d]pyridine-6(5H)-carboxamide] | B (B indicates % inhibition <80% and >20%) | C (C indicates % inhibition <20%) | E (E indicates negative modulation <20%)
7 | CCCCNC(=O)n1cc2[nH]cc3c(=O)n(-c4ccccc4F)nc-3c2c1 [Compound 13e, N-butyl-2-(2-fluorophenyl)-3-oxo-2,3-dihydropyrazolo[3,4-d]pyrrolo[3,4-b]pyridine-7(5H)-carboxamide] | A (A indicates % inhibition >80%) | B (B indicates % inhibition <80% and >20%) | E (E indicates negative modulation <20%)
8 | CCNC(=O)n1cc2[nH]cc3c(=O)n(-c4ccccc4F)nc-3c2c1 [Compound 13d, N-Ethyl-2-(2-fluorophenyl)-3-oxo-2,3-dihydropyrazolo[3,4-d]pyrrolo[3,4-b]pyridine-7(5H)-carboxamide] | A (A indicates % inhibition >80%) | B (B indicates % inhibition <80% and >20%) | D (D indicates negative modulation >20%)
9 | CCNC(=O)n1ncc2c3nn(-c4cccc(C(F)(F)F)c4)c(=O)c-3c[nH]c21 [Compound 6ai, N-ethyl-3-oxo-2-(3-(trifluoromethyl)phenyl)-2,3-dihydrodipyrazolo[3,4-b:3′,4′-d]pyridine-6(5H)-carboxamide] | A (A indicates % inhibition >80%) | C (C indicates % inhibition <20%) | 0%
10 | CCNC(=O)n1nc(C)c2c3nn(-c4ccccc4)c(=O)c-3c[nH]c21 [Compound 6l, N-ethyl-8-methyl-3-oxo-2-phenyl-2,3-dihydrodipyrazolo[3,4-b:3′,4′-d]pyridine-6(5H)-carboxamide] | A (A indicates % inhibition >80%) | A (A indicates % inhibition >80%) | D (D indicates negative modulation >20%)
11 | CCNC(=O)n1nc2[nH]cc3c(=O)n(-c4ccccc4)nc-3c2c1C [Compound 6av, N-ethyl-8-methyl-3-oxo-2-phenyl-2,3-dihydrodipyrazolo[3,4-b:3′,4′-d]pyridine-7(5H)-carboxamide] | A (A indicates % inhibition >80%) | B (B indicates % inhibition <80% and >20%) | E (E indicates negative modulation <20%)
12 | CCNC(=O)n1cc2[nH]cc3c(=O)n(-c4ccccc4)nc-3c2n1 [Compound 21a] | C (C indicates % inhibition <20%) | B (B indicates % inhibition <80% and >20%) | D (D indicates negative modulation >20%)
13 | CCNC(=O)n1ncc2c3nn(-c4ccc(C(C)C)cc4)c(=O)c-3c[nH]c21 [Compound 6z, N-ethyl-2-(4-isopropylphenyl)-3-oxo-2,3-dihydrodipyrazolo[3,4-b:3′,4′-d]pyridine-6(5H)-carboxamide. TFA] | A (A indicates % inhibition >80%) | – | E (E indicates negative modulation <20%)
14 | CC(C)NC(=O)n1ncc2c3nn(-c4ccccn4)c(=O)c-3c[nH]c21 [Compound 6n, N-isopropyl-3-oxo-2-(pyridin-2-yl)-2,3-dihydrodipyrazolo[3,4-b:3′,4′-d]pyridine-6(5H)-carboxamide] | C (C indicates % inhibition <20%) | C (C indicates % inhibition <20%) | E (E indicates negative modulation <20%)
15 | CCNC(=O)n1cc2[nH]cc3c(=O)n(-c4ccc(F)cc4F)nc-3c2c1 [Compound 13g, 2-(2,4-Difluorophenyl)-N-ethyl-3-oxo-2,3-dihydropyrazolo[3,4-d]pyrrolo[3,4-b]pyridine-7(5H)-carboxamide] | A (A indicates % inhibition >80%) | B (B indicates % inhibition <80% and >20%) | D (D indicates negative modulation >20%)
